Measured values taken from ChEMBL document CHEMBL1201862, “PubChem BioAssay data set” (2004).
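48-hour exposure; five concentrations; linearly interpolated endpoints. At the GI50, growth is halved.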 Calls of active or inactive are those of the source. Rule as the data show it: active = GI50 up to about 1.1 µM and inactive = higher.

What was measured:
Assay in all cases: NCI anticancer screen, dose series, 48 h
[1] = test system: SF-268
[2] = test system: NCI-H460
[3] = test system: MCF7
[4] = test system: Malme-3M
[5] = test system: SNB-19
[6] = test system: HCC 2998
[7] = test system: T47D
[8] = test system: RPMI-8226
[9] = test system: SK-MEL-5
[10] = test system: BT-549
[11] = test system: RXF 393
[12] = test system: SW-620
[13] = test system: HCT-116
[14] = test system: SK-MEL-28
[15] = test system: SN12C
[16] = test system: MOLT-4
[17] = test system: CCRF-CEM
[18] = test system: SR
[19] = test system: UACC-257
[20] = test system: LXFL 529

Measured: GI50

Cc1cc(S(=O)(=O)Nc2nc(N)nc(N3CCOCC3)n2)c(SCC(=O)O)cc1Cl
inactive: [1] > 10 µM | [2] > 10 µM | [3] > 10 µM | [4] > 10 µM | [5] > 10 µM | [6] > 10 µM | [7] > 10 µM | [8] > 10 µM | [9] > 10 µM | [10] > 10 µM | [11] > 10 µM | [12] > 10 µM | [13] > 10 µM | [14] > 10 µM | [15] > 10 µM | [16] > 10 µM | [17] > 10 µM | [18] > 10 µM | [19] > 10 µM

COc1cc(COC(=O)NC(Cc2cccs2)C(=O)O)c([N+](=O)[O-])cc1OC (stereo unspecified)
inactive: [1] > 100 µM | [2] > 100 µM | [3] > 100 µM | [4] > 100 µM | [5] > 100 µM | [6] > 100 µM | [7] > 100 µM | [8] > 100 µM | [9] > 100 µM | [10] > 100 µM | [11] > 100 µM | [12] > 100 µM | [13] > 100 µM | [14] > 100 µM | [15] > 100 µM | [16] > 100 µM | [17] > 100 µM | [18] > 100 µM | [19] > 100 µM

Nc1c(-c2nc3ccccc3s2)[n+]([O-])c2ccccc2[n+]1[O-]
inactive: [1] 26.9 µM | [2] 28.1 µM | [4] 30.4 µM | [5] 29.3 µM | [6] 38.1 µM | [8] 25.8 µM | [9] 17 µM | [12] 43.5 µM | [13] 24.3 µM | [14] 25.2 µM | [16] 32.7 µM | [17] 42.6 µM | [19] 30.8 µM | [20] 28.4 µM

CCNC1=C(NC(=O)c2ccc(OC)cc2)C(=O)c2ccccc2C1=O
inactive: [1] > 100 µM | [2] 56.5 µM | [3] 51.8 µM | [4] 21.3 µM | [5] > 100 µM | [6] 37.5 µM | [7] 66.1 µM | [8] > 100 µM | [9] 34.7 µM | [10] 63.1 µM | [11] 28.5 µM | [12] 44 µM | [13] 36.3 µM | [14] > 100 µM | [15] 43.6 µM | [16] 36.1 µM | [17] 48.3 µM | [18] 56.5 µM | [19] 19.4 µM

CC(C)c1ccc(/C=C(\NC(=O)c2ccccc2)c2nc3ccccc3[nH]2)cc1
inactive: [1] 41 µM | [2] 59.4 µM | [4] 79.3 µM | [5] 47.8 µM | [8] 20 µM | [9] 23.5 µM | [11] 36.5 µM | [12] 49.4 µM | [13] 31.6 µM | [14] > 10 µM | [15] 55 µM | [16] 23.3 µM | [17] 34.1 µM | [19] 35.2 µM | [20] 31.8 µM

CCc1ccc(/N=C\c2cc(OC)c(OC)c(OC)c2)cc1
inactive: [1] > 100 µM | [2] 37.7 µM | [4] > 100 µM | [5] > 100 µM | [8] 16.6 µM | [9] > 100 µM | [11] > 100 µM | [12] 10.9 µM | [13] > 100 µM | [14] > 100 µM | [15] > 100 µM | [16] > 100 µM | [17] 40.7 µM | [19] > 100 µM | [20] 51.9 µM

CS(C)(=O)=N/C=C\C(=O)C(Cl)(Cl)Cl
inactive: [1] > 100 µM | [2] > 100 µM | [3] > 100 µM | [4] > 100 µM | [5] > 100 µM | [6] > 100 µM | [7] > 100 µM | [8] 83 µM | [9] > 100 µM | [10] > 100 µM | [11] > 100 µM | [12] > 100 µM | [13] 98.6 µM | [14] > 100 µM | [15] > 100 µM | [16] 53.8 µM | [17] 44.1 µM | [18] 58.7 µM | [19] > 100 µM

C=C(C)C(=O)O[C@H]1[C@H]2[C@H](OC(=O)[C@H]2C)[C@H](O)[C@@H](C)[C@@H]2C=CC(=O)[C@]21C
inactive: [1] 3.4 µM | [2] 1.82 µM | [3] 4.19 µM | [4] 2.18 µM | [5] 4.93 µM | [6] 2.45 µM | [7] 4.78 µM | [8] 2.85 µM | [9] 5.47 µM | [10] 3.83 µM | [11] 1.22 µM | [12] 2.72 µM | [13] 2.32 µM | [14] 2.26 µM | [15] 2.08 µM | [16] 3 µM | [17] 2.07 µM | [18] 1.73 µM | [19] 2.13 µM

O=CC1C(Cl)=Nc2nc3ccccc3n2C1c1ccc([N+](=O)[O-])cc1 (stereo unspecified)
inactive: [1] 6.84 µM | [2] 31.1 µM | [3] 3.97 µM | [4] 8.13 µM | [5] 16 µM | [6] 14 µM | [7] 1.57 µM | [8] 3.77 µM | [9] 6.68 µM | [11] 2.93 µM | [12] 4.8 µM | [13] 3.73 µM | [14] 2.51 µM | [15] 15.4 µM | [16] 1.71 µM | [17] 3.11 µM | [18] 2.16 µM | [19] 13.6 µM
active: [10] < 0.01 µM

CC1=NN(c2cccc(S(=O)(=O)O)c2)C2(C1)C(Cl)C(=O)N2c1nc2ccccc2s1 (stereo unspecified)
inactive: [1] 7.87 µM | [2] 9.62 µM | [3] 8.89 µM | [4] 5.83 µM | [5] 11.2 µM | [6] 15.1 µM | [7] 9.35 µM | [8] 1.83 µM | [9] 6.17 µM | [10] 5.5 µM | [11] 8.28 µM | [12] 4.54 µM | [13] 6.47 µM | [14] 15.7 µM | [15] 5.37 µM | [16] 2.88 µM | [17] 1.26 µM | [18] 7.08 µM | [19] 13.6 µM

O=C1NC2CCCCC2NC1=C(C(=O)c1ccccc1)C(=O)c1ccccc1 (stereo unspecified)
inactive: [1] 69.2 µM | [2] 27.4 µM | [3] 16.9 µM | [4] > 100 µM | [5] 65.9 µM | [6] 70.8 µM | [7] > 100 µM | [8] 28.8 µM | [9] 27.5 µM | [10] 10.9 µM | [11] > 100 µM | [12] 39.3 µM | [13] 40.7 µM | [14] 78.2 µM | [15] 20.7 µM | [16] 20.5 µM | [17] 11 µM | [18] 27.2 µM | [19] 95.7 µM

COc1ccc(/C=C/C(=O)c2c(-c3ccccc3)nn(C)c(=O)c2N2CCCCC2)cc1
inactive: [1] 19.7 µM | [2] 17.8 µM | [5] 18.4 µM | [8] 5.26 µM | [9] 12.8 µM | [11] 12 µM | [12] 24.5 µM | [13] 7.31 µM | [14] 14.9 µM | [15] 20.8 µM | [16] 3.94 µM | [17] 9.95 µM | [20] 16.6 µM

CCOC(=O)/C=C(/C(=O)OCC)n1ccc(=O)[nH]c1=O
inactive: [1] 15.6 µM | [2] 14.6 µM | [3] 4.19 µM | [4] 1.9 µM | [5] 15.4 µM | [6] 16.5 µM | [7] 3.4 µM | [8] 2.67 µM | [9] 15.3 µM | [10] 12.2 µM | [11] 4.21 µM | [12] 1.86 µM | [13] 2.48 µM | [14] 6.56 µM | [15] 7.78 µM | [16] 2.25 µM | [17] 1.14 µM | [18] 4.36 µM | [19] 12.6 µM

CCC(C)C(NC(=O)C(CCCCN)NC(=O)C(NC(=O)C(CCC(N)=O)NC(=O)C(CCCNC(=N)N)NC(C)=O)C(C)CC)C(=O)NC(Cc1c[nH]c2ccccc12)C(=O)NC(Cc1ccccc1)C(=O)NC(CCC(N)=O)C(=O)NC(CC(N)=O)C(=O)NC(CCCNC(=N)N)C(=O)NC(CCCNC(=N)N)C(=O)NC(CCSC)C(=O)NC(CCCCN)C(=O)NC(Cc1c[nH]c2ccccc12)C(=O)NC(CCCCN)C(=O)NC(CCCCN)C(N)=O (stereo unspecified)
inactive: [1] 45.1 µM | [2] 15.5 µM | [3] 29.8 µM | [4] 34.1 µM | [5] > 50 µM | [6] > 50 µM | [7] 16.3 µM | [8] 11.2 µM | [9] 22.5 µM | [10] > 50 µM | [11] > 50 µM | [12] > 50 µM | [13] > 50 µM | [14] > 50 µM | [15] 16.5 µM | [16] > 50 µM | [17] 22.4 µM | [18] > 50 µM | [19] 46.5 µM

COc1cc(OC)c2c(c1)OC(c1ccccc1)CC2=O (stereo unspecified) [DIMETHYLPINOCEMBRIN]
inactive: [1] > 10 µM | [2] > 10 µM | [3] > 10 µM | [4] > 10 µM | [5] > 10 µM | [6] > 10 µM | [7] > 10 µM | [8] > 10 µM | [9] > 10 µM | [10] > 10 µM | [11] > 10 µM | [12] > 10 µM | [13] > 10 µM | [14] > 10 µM | [15] > 10 µM | [16] > 10 µM | [17] > 10 µM | [18] > 10 µM | [19] > 10 µM
